Columns and labels:
Test in all cases: biochemical
Parameters in all cases: species or system HEK293/K-562/placenta mixed human extract; Kinobeads chemoproteomic competition binding, quantified by TMT LC-MS/MS, dose response up to 20 uM
[1] = molecular target: AURKB (Homo sapiens, UniProt Q96GD4)
[2] = molecular target: BRSK2 (Homo sapiens, UniProt Q8IWQ3)
[3] = molecular target: CDKL5 (Homo sapiens, UniProt O76039)
[4] = molecular target: CSNK1E (Homo sapiens, UniProt P49674)
[5] = molecular target: EGFR (Homo sapiens, UniProt P00533)
[6] = molecular target: EPHA4 (Homo sapiens, UniProt P54764)
Chain of EPHA4 (P54764 whole entry): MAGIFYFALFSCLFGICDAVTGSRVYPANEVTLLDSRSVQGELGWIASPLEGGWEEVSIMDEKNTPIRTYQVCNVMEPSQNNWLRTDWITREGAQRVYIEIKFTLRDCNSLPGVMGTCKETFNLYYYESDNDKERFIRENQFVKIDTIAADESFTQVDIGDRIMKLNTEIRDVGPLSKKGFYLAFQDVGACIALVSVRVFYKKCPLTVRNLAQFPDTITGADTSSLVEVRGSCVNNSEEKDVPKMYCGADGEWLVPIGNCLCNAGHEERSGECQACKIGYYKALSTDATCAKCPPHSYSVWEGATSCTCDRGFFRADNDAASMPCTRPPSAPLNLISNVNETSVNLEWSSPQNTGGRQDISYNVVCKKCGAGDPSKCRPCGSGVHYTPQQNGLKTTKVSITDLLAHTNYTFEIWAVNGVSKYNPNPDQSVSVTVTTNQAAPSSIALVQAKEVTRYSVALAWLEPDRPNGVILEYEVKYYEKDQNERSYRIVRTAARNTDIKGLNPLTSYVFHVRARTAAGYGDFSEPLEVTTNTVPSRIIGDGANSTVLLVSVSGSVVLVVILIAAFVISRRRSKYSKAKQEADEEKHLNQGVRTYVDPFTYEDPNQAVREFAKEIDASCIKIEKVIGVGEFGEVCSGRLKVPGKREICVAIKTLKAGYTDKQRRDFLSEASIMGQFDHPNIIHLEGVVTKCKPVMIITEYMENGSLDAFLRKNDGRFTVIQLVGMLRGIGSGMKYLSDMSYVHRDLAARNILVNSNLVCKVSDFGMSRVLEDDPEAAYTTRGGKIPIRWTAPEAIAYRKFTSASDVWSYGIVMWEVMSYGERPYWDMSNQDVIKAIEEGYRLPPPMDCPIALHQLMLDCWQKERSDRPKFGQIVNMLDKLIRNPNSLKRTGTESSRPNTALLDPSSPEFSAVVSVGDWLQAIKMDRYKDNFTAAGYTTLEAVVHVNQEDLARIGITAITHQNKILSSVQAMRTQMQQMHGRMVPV

[7] = molecular target: ERN1 (Homo sapiens, UniProt O75460)
Chain of ERN1 (O75460 whole entry): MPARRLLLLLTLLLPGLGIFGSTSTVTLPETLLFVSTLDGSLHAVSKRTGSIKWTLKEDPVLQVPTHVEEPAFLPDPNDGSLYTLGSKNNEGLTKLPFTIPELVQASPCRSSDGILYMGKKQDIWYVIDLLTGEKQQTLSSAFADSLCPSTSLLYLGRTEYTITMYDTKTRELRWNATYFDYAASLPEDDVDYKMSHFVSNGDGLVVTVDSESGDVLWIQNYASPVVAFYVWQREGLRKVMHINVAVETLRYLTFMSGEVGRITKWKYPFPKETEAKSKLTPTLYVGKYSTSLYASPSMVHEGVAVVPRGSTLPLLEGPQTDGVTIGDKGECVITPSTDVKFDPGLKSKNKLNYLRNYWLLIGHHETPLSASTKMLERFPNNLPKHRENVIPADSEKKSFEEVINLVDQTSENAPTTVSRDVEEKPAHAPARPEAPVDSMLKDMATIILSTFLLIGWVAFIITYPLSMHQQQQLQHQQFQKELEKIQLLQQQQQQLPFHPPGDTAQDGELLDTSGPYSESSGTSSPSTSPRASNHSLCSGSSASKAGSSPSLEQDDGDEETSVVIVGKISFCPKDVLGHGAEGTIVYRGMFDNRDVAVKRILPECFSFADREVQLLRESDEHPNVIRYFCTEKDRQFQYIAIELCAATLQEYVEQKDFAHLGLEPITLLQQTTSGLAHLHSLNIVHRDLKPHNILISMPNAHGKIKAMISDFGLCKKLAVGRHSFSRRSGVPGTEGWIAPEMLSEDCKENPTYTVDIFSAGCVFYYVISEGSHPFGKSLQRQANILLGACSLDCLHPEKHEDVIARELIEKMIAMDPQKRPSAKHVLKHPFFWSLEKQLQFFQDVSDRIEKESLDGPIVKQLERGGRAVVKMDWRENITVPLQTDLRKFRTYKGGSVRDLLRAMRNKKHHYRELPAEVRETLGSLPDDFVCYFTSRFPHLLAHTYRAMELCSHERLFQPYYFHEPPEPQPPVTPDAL

[8] = molecular target: JAK2 (Homo sapiens, UniProt O60674)
[9] = molecular target: LATS1 (Homo sapiens, UniProt O95835)
[10] = molecular target: LRRK2 (Homo sapiens, UniProt Q5S007)
[11] = molecular target: MAP3K13 (Homo sapiens, UniProt O43283)
[12] = molecular target: MAPK7 (Homo sapiens, UniProt Q13164)
Chain of MAPK7 (Q13164 whole entry): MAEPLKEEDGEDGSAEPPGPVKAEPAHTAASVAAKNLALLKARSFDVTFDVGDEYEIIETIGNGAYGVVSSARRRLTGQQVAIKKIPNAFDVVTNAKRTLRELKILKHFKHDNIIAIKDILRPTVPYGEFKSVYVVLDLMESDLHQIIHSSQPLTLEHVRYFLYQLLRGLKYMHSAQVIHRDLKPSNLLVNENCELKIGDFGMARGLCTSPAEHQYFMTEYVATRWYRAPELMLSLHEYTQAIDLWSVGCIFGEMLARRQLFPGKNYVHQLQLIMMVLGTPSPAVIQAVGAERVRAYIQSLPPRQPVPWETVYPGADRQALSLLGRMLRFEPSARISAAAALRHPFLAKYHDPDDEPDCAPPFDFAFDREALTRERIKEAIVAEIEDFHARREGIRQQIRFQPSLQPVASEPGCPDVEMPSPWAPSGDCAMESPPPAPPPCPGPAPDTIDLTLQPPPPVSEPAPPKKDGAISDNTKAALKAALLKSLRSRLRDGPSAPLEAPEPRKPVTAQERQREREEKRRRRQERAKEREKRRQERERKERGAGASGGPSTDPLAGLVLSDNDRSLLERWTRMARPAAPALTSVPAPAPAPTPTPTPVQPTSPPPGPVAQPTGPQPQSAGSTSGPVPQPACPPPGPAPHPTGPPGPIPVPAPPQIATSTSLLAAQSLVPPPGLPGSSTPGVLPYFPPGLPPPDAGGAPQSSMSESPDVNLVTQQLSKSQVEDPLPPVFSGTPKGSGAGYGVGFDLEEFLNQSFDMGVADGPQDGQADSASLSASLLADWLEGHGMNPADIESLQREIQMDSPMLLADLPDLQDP

[13] = molecular target: MET (Homo sapiens, UniProt P08581)
[14] = molecular target: OXSR1 (Homo sapiens, UniProt O95747)
[15] = molecular target: PIP4K2A (Homo sapiens, UniProt P48426)
[16] = molecular target: PRKCB (Homo sapiens, UniProt P05771)
[17] = molecular target: PRKD1 (Homo sapiens, UniProt Q15139)
Chain of PRKD1 (Q15139 whole entry): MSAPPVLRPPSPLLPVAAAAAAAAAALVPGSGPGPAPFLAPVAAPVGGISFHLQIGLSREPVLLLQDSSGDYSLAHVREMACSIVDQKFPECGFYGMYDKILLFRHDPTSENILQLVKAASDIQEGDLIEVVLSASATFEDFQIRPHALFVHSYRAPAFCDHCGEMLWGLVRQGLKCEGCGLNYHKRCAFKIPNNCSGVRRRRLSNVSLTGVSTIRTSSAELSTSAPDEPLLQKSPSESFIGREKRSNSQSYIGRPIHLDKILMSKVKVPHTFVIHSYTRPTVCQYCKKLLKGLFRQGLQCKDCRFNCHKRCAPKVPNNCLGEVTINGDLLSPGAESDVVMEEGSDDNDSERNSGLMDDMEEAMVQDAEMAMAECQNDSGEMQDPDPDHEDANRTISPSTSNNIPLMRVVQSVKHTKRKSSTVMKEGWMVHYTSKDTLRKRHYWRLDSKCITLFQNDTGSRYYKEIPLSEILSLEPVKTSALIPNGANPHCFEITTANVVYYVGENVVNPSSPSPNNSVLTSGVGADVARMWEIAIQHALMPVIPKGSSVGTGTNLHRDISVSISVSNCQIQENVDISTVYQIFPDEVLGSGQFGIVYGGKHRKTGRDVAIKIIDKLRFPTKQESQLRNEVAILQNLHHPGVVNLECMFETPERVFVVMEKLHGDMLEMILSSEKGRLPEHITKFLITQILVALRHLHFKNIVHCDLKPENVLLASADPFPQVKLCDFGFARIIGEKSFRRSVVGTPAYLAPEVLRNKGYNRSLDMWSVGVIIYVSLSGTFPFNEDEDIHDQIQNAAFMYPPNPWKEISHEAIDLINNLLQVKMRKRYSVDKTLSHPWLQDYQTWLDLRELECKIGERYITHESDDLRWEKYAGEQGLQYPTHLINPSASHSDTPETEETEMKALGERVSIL

[18] = molecular target: PRKDC (Homo sapiens, UniProt P78527)
[19] = molecular target: TBK1 (Homo sapiens, UniProt Q9UHD2)
[20] = molecular target: TGFBR1 (Homo sapiens, UniProt P36897)
[21] = molecular target: TNK2 (Homo sapiens, UniProt Q07912)
Chain of TNK2 (Q07912 whole entry): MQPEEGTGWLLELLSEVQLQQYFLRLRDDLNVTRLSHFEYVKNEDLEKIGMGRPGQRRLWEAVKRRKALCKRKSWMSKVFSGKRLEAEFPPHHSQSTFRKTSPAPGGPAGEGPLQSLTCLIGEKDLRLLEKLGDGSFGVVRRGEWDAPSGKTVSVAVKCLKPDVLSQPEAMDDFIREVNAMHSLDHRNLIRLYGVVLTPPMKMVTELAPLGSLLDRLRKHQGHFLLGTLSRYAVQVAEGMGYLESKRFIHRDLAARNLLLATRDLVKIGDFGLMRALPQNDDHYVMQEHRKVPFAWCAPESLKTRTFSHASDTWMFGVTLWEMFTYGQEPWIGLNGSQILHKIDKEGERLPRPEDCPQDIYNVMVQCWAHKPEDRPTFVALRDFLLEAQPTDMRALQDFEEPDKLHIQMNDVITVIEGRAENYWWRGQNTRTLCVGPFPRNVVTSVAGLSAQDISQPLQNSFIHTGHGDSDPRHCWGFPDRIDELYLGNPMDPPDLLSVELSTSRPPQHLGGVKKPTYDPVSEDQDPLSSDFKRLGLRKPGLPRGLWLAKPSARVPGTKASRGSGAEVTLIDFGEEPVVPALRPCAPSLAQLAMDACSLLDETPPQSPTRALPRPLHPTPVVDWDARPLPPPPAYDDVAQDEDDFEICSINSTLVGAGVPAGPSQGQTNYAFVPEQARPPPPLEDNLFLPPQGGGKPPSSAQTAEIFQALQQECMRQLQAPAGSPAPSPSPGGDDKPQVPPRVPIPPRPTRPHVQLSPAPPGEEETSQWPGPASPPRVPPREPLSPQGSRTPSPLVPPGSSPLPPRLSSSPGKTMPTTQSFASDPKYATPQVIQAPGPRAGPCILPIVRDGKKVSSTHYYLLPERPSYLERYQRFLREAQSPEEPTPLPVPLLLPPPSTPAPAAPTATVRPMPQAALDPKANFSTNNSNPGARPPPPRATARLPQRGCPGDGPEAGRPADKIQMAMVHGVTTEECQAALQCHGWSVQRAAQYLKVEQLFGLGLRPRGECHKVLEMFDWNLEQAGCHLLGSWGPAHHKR

Measured: IC50

Chain of AURKB (Q96GD4 whole entry): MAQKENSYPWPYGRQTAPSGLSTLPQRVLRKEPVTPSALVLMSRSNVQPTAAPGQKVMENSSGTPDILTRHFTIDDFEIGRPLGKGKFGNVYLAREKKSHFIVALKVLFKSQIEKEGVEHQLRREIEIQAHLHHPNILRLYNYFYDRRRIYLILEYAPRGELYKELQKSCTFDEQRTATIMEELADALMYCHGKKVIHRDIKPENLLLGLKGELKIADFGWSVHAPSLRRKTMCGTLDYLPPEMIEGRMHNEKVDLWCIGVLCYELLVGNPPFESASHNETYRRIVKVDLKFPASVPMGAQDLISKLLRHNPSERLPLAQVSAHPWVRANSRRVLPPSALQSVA

COc1nc(N[C@H]2CC[C@H](NS(=O)(=O)CC(C)C)CC2)nc2[nH]nc(N3CCOC[C@H]3C)c12 [compound 39, N-(trans-4-((4-Methoxy-3-((R)-3-methylmorpholino)-1H-pyrazolo[3,4-d]pyrimidin-6-yl)amino)cyclohexyl)-2-methylpropane-1-sulfonamide]
≥ 20 µM: all assays above

Reference: PMC6407917, “Identification of GSK3186899/DDD853651 as a Preclinical Development Candidate for the Treatment of Visceral Leishmaniasis” (Journal of Medicinal Chemistry, 2018)
